Tests used:
Assay in all cases: relative viability (nuclei count vs DMSO), 5 days (fraction); higher = more cells survive
Trametinib + Lapatinib = compound: CC(=O)Nc1cccc(-n2c(=O)n(C3CC3)c(=O)c3c(Nc4ccc(I)cc4F)n(C)c(=O)c(C)c32)c1 [Trametinib] + CS(=O)(=O)CCNCc1ccc(-c2ccc3ncnc(Nc4ccc(OCc5cccc(F)c5)c(Cl)c4)c3c2)o1 [Lapatinib] (partner 2 µM)
Summary of the method: (§1)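 Each reported value is a median over duplicate plates. It expresses relative viability: treated-well nuclei count divided by vehicle-well nuclei count. Lung cancer cell lines in 1536-well plates were dosed by pin tool a day after seeding, alone with one drug or with a fixed anchor-drug dose plus five library-drug doses (not always all listed) in √10 steps, and nuclei were counted after 5 days.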

[1] = compound: CN1C=C(C2=CC=CC=C21)/C=C\3/C4=C(C=CC=N4)NC3=O + Cc1nc(Nc2ncc(C(=O)Nc3c(C)cccc3Cl)s2)cc(N2CCN(CCO)CC2)n1 [Dasatinib] (partner 0.075 µM)
Summary of the method: as §1

[2] = compound: CN1C=C(C2=CC=CC=C21)/C=C\3/C4=C(C=CC=N4)NC3=O + O=C(c1cc(Cc2n[nH]c(=O)c3ccccc23)ccc1F)N1CCN(C(=O)C2CC2)CC1 [Olaparib] (partner 8 µM)
Summary of the method: as §1

[3] = compound: CN1C=C(C2=CC=CC=C21)/C=C\3/C4=C(C=CC=N4)NC3=O + CC(=O)Nc1cccc(-n2c(=O)n(C3CC3)c(=O)c3c(Nc4ccc(I)cc4F)n(C)c(=O)c(C)c32)c1 [Trametinib] (partner 0.02 µM)
Summary of the method: as §1

Cell Line | relative viability (Trametinib + Lapatinib; first compound 0.0025 µM) | relative viability (Trametinib + Lapatinib; first compound 0.007906 µM) | relative viability (Trametinib + Lapatinib; first compound 0.025 µM) | relative viability (Trametinib + Lapatinib; first compound 0.07906 µM) | relative viability (Trametinib + Lapatinib; first compound 0.25 µM) | relative viability ([1]; first compound 0.02 µM) | relative viability ([1]; first compound 0.06325 µM) | relative viability ([1]; first compound 0.2 µM) | relative viability ([1]; first compound 0.6325 µM) | relative viability ([1]; first compound 2 µM) | relative viability ([2]; first compound 0.02 µM) | relative viability ([2]; first compound 0.06325 µM) | relative viability ([2]; first compound 0.2 µM) | relative viability ([2]; first compound 0.6325 µM) | relative viability ([2]; first compound 2 µM) | relative viability ([3]; first compound 0.02 µM) | relative viability ([3]; first compound 0.06325 µM) | relative viability ([3]; first compound 0.2 µM) | relative viability ([3]; first compound 0.6325 µM) | relative viability ([3]; first compound 2 µM)
NCI-H1395 | 1.05 | 0.869 | 0.834 | 0.907 | 0.406 | 0.399 | 0.425 | 0.371 | 0.422 | 0.392 | 0.461 | 0.476 | 0.455 | 0.527 | 0.457 | 0.946 | 0.976 | 1.01 | 0.98 | 1.07
NCI-H1437 | 0.673 | 0.278 | 0.17 | 0.178 | 0.209 | 0.411 | 0.416 | 0.3 | 0.455 | 0.479 | 0.628 | 0.644 | 0.657 | 0.681 | 0.658 | 0.596 | 0.593 | 0.545 | 0.453 | 0.531
NCI-H1650 | 0.899 | 0.714 | 0.567 | 0.568 | 0.151 | 0.262 | 0.296 | 0.26 | 0.263 | 0.277 | 0.843 | 0.69 | 0.718 | 0.714 | 0.749 | 0.559 | 0.535 | 0.559 | 0.582 | 0.53
NCI-H1651 | 0.757 | 0.74 | 0.66 | 0.531 | 0.452 | 0.522 | 0.534 | 0.353 | 0.464 | 0.345 | 0.18 | 0.164 | 0.182 | 0.197 | 0.217 | 0.818 | 0.833 | 0.861 | 0.837 | 0.868
NCI-H1666 | 0.354 | 0.414 | 0.405 | 0.387 | 0.265 | 0.892 | 0.822 | 0.79 | 0.758 | 0.81 | 0.749 | 0.735 | 0.706 | 0.708 | 0.714 | 0.987 | 0.832 | 0.901 | 0.857 | 0.925
NCI-H1734 | 1.02 | 1.01 |  | 1.03 | 0.517 | 0.453 | 0.408 |  | 0.455 | 0.517 | 0.355 | 0.596 |  | 0.588 | 0.631 | 0.603 | 0.619 |  | 0.676 | 0.699
NCI-H1755 | 0.969 | 0.897 | 0.849 | 0.871 | 0.863 | 0.365 | 0.411 | 0.37 | 0.402 | 0.351 | 0.903 | 0.946 | 0.83 | 0.699 | 0.681 | 0.782 | 0.83 | 0.76 | 0.737 | 0.696
NCI-H1792 | 0.976 | 0.79 | 0.682 | 0.535 | 0.417 | 0.816 | 0.93 | 0.74 |  | 0.66 | 0.502 | 0.349 | 0.32 | 0.254 | 0.376 | 0.474 | 0.54 | 0.462 | 0.353 | 0.406
NCI-H1793 | 0.478 | 0.531 | 0.397 | 0.395 | 0.352 | 0.429 | 0.341 | 0.337 | 0.353 | 0.381 | 0.678 | 0.813 | 0.72 | 0.817 | 0.63 | 0.526 | 0.611 | 0.396 | 0.441 | 0.387
NCI-H1915 | 1.01 | 0.929 | 0.873 | 0.538 | 0.253 | 0.331 | 0.295 | 0.274 | 0.338 | 0.31 | 0.259 | 0.257 | 0.28 | 0.304 | 0.257 | 0.3 | 0.32 | 0.293 | 0.303 | 0.285
NCI-H1944 | 0.76 | 0.632 | 0.588 | 0.493 | 0.396 | 0.214 | 0.215 |  | 0.194 | 0.217 | 0.382 | 0.368 |  | 0.377 | 0.403 | 0.359 | 0.359 |  | 0.405 | 0.444
NCI-H1975 | 0.816 | 0.725 | 0.534 | 0.385 | 0.292 | 0.382 | 0.38 | 0.333 | 0.279 | 0.239 | 0.803 | 0.737 | 0.674 | 0.61 | 0.47 | 0.32 | 0.237 | 0.323 | 0.326 | 0.271
NCI-H1993 | 0.824 | 0.909 | 0.651 | 0.648 | 0.682 | 0.537 | 0.59 | 0.523 | 0.468 | 0.951 | 0.781 | 1.09 | 1.06 | 0.972 | 0.966 | 0.517 | 0.5 | 0.589 | 0.342 | 0.507
NCI-H2009 | 0.841 | 0.612 | 0.225 | 0.343 | 0.236 | 0.265 | 0.295 | 0.261 | 0.333 | 0.315 | 0.598 | 0.636 | 0.703 | 0.677 | 0.604 | 0.261 | 0.255 | 0.293 | 0.296 | 0.263
NCI-H2023 | 0.947 | 0.356 | 0.383 | 0.579 | 0.181 | 0.638 | 0.566 | 0.349 | 0.458 | 0.381 | 0.451 | 0.53 | 0.566 | 0.432 | 0.517 | 0.528 | 0.571 |  | 0.378 | 0.43
NCI-H2085 | 0.783 | 0.707 | 0.426 | 0.668 | 0.549 | 0.248 | 0.273 | 0.195 | 0.227 | 0.204 | 0.806 | 0.75 | 0.86 | 0.857 | 0.847 | 0.504 | 0.514 | 0.513 | 0.445 | 0.408

— the supplement of paper PMC10307832
